Reference: PubChem BioAssay (NCI)
Several values for one entry are separate records, joined by “and”; a condition that tells them apart may be missing. Equal entries are not always repeated.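 Briefly, cells in 96-well plates were exposed to five compound concentrations for 48 h, and endpoints were estimated by linear interpolation. At the GI50, growth is halved. Definition used: TGI = concentration required for complete inhibition of growth.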

Key:
Test in all cases: NCI tumour cell line growth inhibition, 48 h
[1] = tested on: DLD-1 colon
[2] = tested on: LOX IMVI melanoma
[3] = tested on: CCRF-CEM leukemia
[4] = tested on: A549 NSCLC
[5] = tested on: HOP-62 NSCLC
[6] = tested on: IGROV1 ovarian
[7] = tested on: KM20L2 colon
[8] = tested on: PC-3 prostate
[9] = tested on: NCI/ADR-RES ovarian
[10] = tested on: MDA-MB-231 breast

SMILES | TGI [1] | TGI [2] | TGI [3] | TGI [4] | TGI [5] | TGI [6] | TGI [7] | TGI [8] | TGI [9] | GI50 [1] | GI50 [3] | GI50 [4] | GI50 [5] | GI50 [6] | GI50 [8] | GI50 [2] | GI50 [10] | TGI [10] | GI50 [9]
CC(=O)NNc1nc(C)c(C(=O)/C=C/c2ccc(/C=C/C(=O)c3sc(NNC(C)=O)nc3C)cc2)s1 | > 100 µM | > 100 µM | > 100 µM | > 100 µM | > 100 µM | > 100 µM |  |  |  |  |  |  |  |  |  |  |  |  | 
N#CC(C#N)=C(N)/C(C#N)=C/c1ccc2[nH]ccc2c1 |  | > 100 µM | > 100 µM | > 100 µM | > 100 µM | > 100 µM | > 100 µM | > 100 µM | > 100 µM |  |  |  |  |  |  |  |  |  | 
NC(=O)C12CC3CC(CC(Br)(C3)C1)C2 | > 100 µM | > 100 µM | > 100 µM | > 100 µM | > 100 µM | > 100 µM | > 100 µM |  |  |  |  |  |  |  |  |  |  |  | 
COC(=O)/C(C#N)=C1\CCc2ccccc21 | > 100 µM | > 100 µM | > 100 µM | > 100 µM |  | > 100 µM | > 100 µM |  |  |  |  |  |  |  |  |  |  |  | 
CCCCc1c2c(nc3c1CCc1cc4cc5c(nc4nc1-3)-c1nc3c(c(CCCC)c1CC5)CCC/C3=C\c1ccccc1)/C(=C/c1ccccc1)CCC2 | > 100 µM | > 100 µM | > 100 µM | > 100 µM | > 100 µM | > 100 µM | > 100 µM |  |  |  |  |  |  |  |  |  |  |  | 
Cc1ccc(NC(=O)CC2SC(N)=NC2=O)cc1C (centres undefined) | > 100 µM | > 100 µM |  | > 100 µM | > 100 µM | > 100 µM | > 100 µM |  |  |  |  |  |  |  |  |  |  |  | 
Nc1ncnc2c1nnn2C1C=C(CO)C(O)C1O (centres undefined) | > 92.6 µM | > 55.3 µM | > 100 µM | > 100 µM | > 100 µM | > 100 µM | > 100 µM |  |  |  |  |  |  |  |  |  |  |  | 
Cc1cc(C)nc(NS(=O)(=O)c2ccc(NC(=O)c3cccn4c(=O)c5ccccc5nc34)cc2)n1 | > 100 µM | 91.8 µM | > 100 µM | > 100 µM | > 100 µM | > 100 µM | > 100 µM |  |  |  |  |  |  |  |  |  |  |  | 
Nc1ccc(C(=O)N/C(=C\c2cccc([N+](=O)[O-])c2)c2nc3ccc(Cl)cc3[nH]2)cc1 | > 100 µM |  | > 100 µM | > 100 µM |  | > 100 µM | > 100 µM |  |  |  |  |  |  |  |  |  |  |  | 
C/C(=C\Cc1cc(O)ccc1O)CCc1c(C)c(O)c(O)c(C=O)c1C | 56.8 µM |  | 9.6 µM | 92.8 µM |  | 41.3 µM | > 100 µM |  |  |  |  |  |  |  |  |  |  |  | 
O=C(O)[C@@H](NS(=O)(=O)c1ccc2ccccc2c1)c1ccccc1 | > 100 µM | > 100 µM | > 100 µM |  |  | > 100 µM | > 100 µM |  |  |  |  |  |  |  |  |  |  |  | 
COC1(C)C(=O)N2C1N(C(=O)OCc1ccccc1)CC2(C)C (centres undefined) | > 100 µM | > 100 µM | > 100 µM | > 100 µM | > 100 µM | > 100 µM | > 100 µM |  |  |  |  |  |  |  |  |  |  |  | 
COc1cccc2c1[C@H]1CO[C@H]3C4C[C@H](C(=O)O)C([C@@H](C2)N13)N4C (some centres undefined) | 7.81 µM and 17.4 µM | 3.29 µM and > 23.9 µM |  | 99 µM | 9.75 µM and 5.44 µM | 9.94 µM and 1.59 µM | 7.84 µM |  | 7.74 µM | 0.452 µM | 2.42 µM and 1.6 µM | 10.1 µM | 3.92 µM and 1.72 µM | 0.551 µM |  |  |  |  | 
Cc1occ2c1C(=O)CC1C2[C@@H](O)CC2C(C)(C)CCC[C@]12C (some centres undefined) | > 100 µM |  | > 100 µM | > 100 µM | > 100 µM | > 100 µM | > 100 µM |  |  |  |  |  |  |  |  |  |  |  | 
CC/C=C\C/C=C/C=C1/C(=O)C=C[C@@H]1C/C=C\CCCC(=O)OC |  | 1.79 µM | 8.7 µM | 52.6 µM | 5.73 µM | 10.2 µM |  | 7.1 µM | > 100 µM |  | 1.25 µM | 5.71 µM | 2.45 µM | 2.95 µM | 2.44 µM | 0.417 µM | 3.55 µM | 11.3 µM | 3.32 µM
COC/N=C(/N)NC#N | > 100 µM |  | > 100 µM | > 100 µM | > 100 µM | > 100 µM | > 100 µM |  |  |  |  |  |  |  |  |  |  |  | 
C=C(Br)CNCC(=C)Br |  | > 100 µM | > 100 µM | > 100 µM | > 100 µM | > 100 µM |  | > 100 µM | > 100 µM |  |  |  |  |  |  |  |  | > 100 µM | 
CSCCCNC(=O)c1csc(-c2csc(CCNC(=O)CNC(=O)CNC(=O)CNC(=O)OC(C)(C)C)n2)n1 |  | > 100 µM | > 100 µM | > 100 µM | > 100 µM | > 100 µM |  | > 100 µM | > 100 µM |  |  |  |  |  |  |  |  | > 100 µM | 
CCOC1OC(=O)[C@H]2[C@@H]1[C@@H]1CC[C@H]2O1 (some centres undefined) |  | > 100 µM | > 100 µM | > 100 µM | > 100 µM | > 100 µM |  | > 100 µM | > 100 µM |  | > 100 µM | > 100 µM | > 100 µM | > 100 µM | > 100 µM | > 100 µM | > 100 µM | > 100 µM | > 100 µM
NNc1c2ccccc2nc2ccccc12 |  | 22.4 µM | > 100 µM | > 100 µM | 79 µM | 20.8 µM |  | 37.3 µM | 27.4 µM |  | 0.688 µM | 5.29 µM | 5.56 µM | 3.07 µM | 2.34 µM | 3.62 µM | 10.7 µM | 48.6 µM | 3.76 µM
C=C1C(=O)O[C@H]2[C@H]1CC/C(CNC(=O)/C=C/c1ccccc1)=C\CC[C@@]1(C)O[C@@H]21 |  | 2.29 µM | 1.3 µM | 19 µM | 14 µM | 5.01 µM |  | 4.15 µM | 14.5 µM |  | 0.342 µM | 4.39 µM | 3.37 µM | 1.7 µM | 1.92 µM | 0.997 µM | 1.59 µM | 3.08 µM | 3.29 µM
CCCCCCCCCCCCCP(=O)(NCC(N)=O)OCC (centres undefined) | 32.7 µM |  | 47.7 µM | 40.7 µM | 32 µM | 39.4 µM | 32.7 µM |  |  |  |  |  |  |  |  |  |  |  | 
Oc1c(Cl)cc(Cl)c2cccnc12 |  | 15.7 µM | > 100 µM | 29.6 µM | 21.1 µM | 18.8 µM |  | > 100 µM | > 100 µM |  | 2.75 µM | 3.49 µM | 2.24 µM | 3.72 µM | 3.94 µM | 2.18 µM | 3.04 µM | 18.3 µM | 3.3 µM
CN1CCc2c1nc(-c1cccnc1)c1c2N(C)CC1 | > 100 µM | > 100 µM | > 100 µM | > 100 µM | > 100 µM | > 100 µM | > 100 µM |  |  |  |  |  |  |  |  |  |  |  | 
